According to patent publication US20160355530A1, “HEPATITIS C INHIBITORS AND USES THEREOF” (AbbVie Inc., priority 2010, published 2016):
Where two headings read alike, the source gives them in different places.

What was measured:
[1] = test system: HCV 1a-H77 C316Y mutant subgenomic replicon; experiment: Stable replicon cell culture assay (luciferase), 1a-H77-C316Y mutant; format: cell-based, HCV genotype 1a; conditions: for EC50: Hepatitis C virus, read-out: Stable Replicon 1a H77-C316Y 5% FBS EC50; for Stable Replicon Fold Resistance C316Y/1a: ratio of stable replicon EC50s, C316Y / 1a H77
[2] = test system: HCV 1b-BB7 subgenomic replicon; experiment: microbe, parasite or virus in culture; format: cell-based, HCV genotype 1b; conditions: Hepatitis C virus, stable replicon
[3] = biological target: T1, HCV NS5B polymerase 1b BK strain (Hepatitis C virus genotype 1b, UniProt P26663); experiment: HCV NS5B polymerase enzymatic inhibition assay, strain 1b BK; format: biochemical; conditions: enzyme, strain 1b BK; read-out: HCV Polymerase Strain 1b BK IC50
T1 construct: six-histidine tag; made in house; host or cells: E. coli
How it was run: (§1)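 Incorporation of [3H]UTP (0.284 μM), alongside 20 μM each CTP and ATP, into RNA copied from a 5 nM 2.1 kb genotype 1b negative-strand template was measured after 3 h at 30° C using purified His-tagged NS5B truncated at residue 570. Product was spermine-precipitated, filtered and scintillation-counted; nonlinear regression gave IC50.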

[4] = biological target: T2, HCV NS5B polymerase 1a-H77-C316Y (Hepatitis C virus genotype 1a, UniProt P27958, C2736Y); experiment: biochemical; design: species or system HCV genotype 1a
T2 construct: six-histidine tag; made in house; host or cells: E. coli
How it was run: as §1

[5] = biological target: T3, HCV NS5B polymerase 1a-H77 (Hepatitis C virus genotype 1a, UniProt P27958); experiment: biochemical; design: species or system HCV genotype 1a; conditions: enzyme, strain 1a H77; read-out: HCV Polymerase Strain 1a H77 IC50
T3 construct: six-histidine tag; made in house; host or cells: E. coli
How it was run: as §1

[6] = test system: HCV NS5B polymerase 1a-H77-C316Y; experiment: biochemical; design: species or system HCV genotype 1a; conditions: ratio of enzyme IC50s, 1a H77-C316Y / 1a H77
How it was run: as §1

[7] = test system: chimeric replicon with genotype 3a NS5B; experiment: microbe, parasite or virus in culture; format: cell-based, HCV genotype 3a; conditions: Hepatitis C virus, read-out: 3a chimera 5% FBS EC50
[8] = test system: chimeric replicon with genotype 2b NS5B; experiment: microbe, parasite or virus in culture; format: cell-based, HCV genotype 2b; conditions: Hepatitis C virus, read-out: 2b chimera 5% FBS EC50
[9] = test system: chimeric replicon with 2a-J6CF-derived NS5B; experiment: microbe, parasite or virus in culture; format: cell-based, HCV genotype 2a; conditions: Hepatitis C virus, read-out: 2a chimera 5% FBS EC50
[10] = test system: chimeric replicon with genotype 4a NS5B; experiment: microbe, parasite or virus in culture; format: cell-based, HCV genotype 4a; conditions: Hepatitis C virus, read-out: 4a chimera 5% FBS EC50
[11] = test system: HCV 1a-H77 subgenomic replicon; experiment: microbe, parasite or virus in culture; format: cell-based, HCV genotype 1a; conditions: Hepatitis C virus, stable replicon
[12] = test system: HCV 1a-H77 transient subgenomic replicon in Huh-7 derived cell line; experiment: microbe, parasite or virus in culture; format: cell-based, HCV genotype 1a; conditions: Hepatitis C virus, Huh-7; transient replicon, 5% FBS; read-out: Transient Replicon 1a H77 5% FBS EC50
How it was run: (§2)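 Transient format: T7-transcribed replicon RNA lacking Neo, electroporated into Huh-7-derived cells (5×10^3/well), input RNA checked by luciferase at 4 h. Three-fold compound dilution series, 0.5% DMSO, 4 days at 37° C; EC50 from luciferase signal in lysed cells.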

[13] = test system: HCV 1a-H77-C316Y transient subgenomic replicon in Huh-7 derived cell line; experiment: microbe, parasite or virus in culture; format: cell-based, HCV genotype 1a; conditions: for EC50: Hepatitis C virus, Huh-7, read-out: Transient Replicon 1a H77-C316Y 5% FBS EC50; for Transient Replicon Fold Resistance C316Y/1a: ratio of transient replicon EC50s, C316Y / 1a H77
How it was run: as §2

[14] = strain 1b BB7, 5% FBS + 40% human plasma, read-out: 1b BB7 5% FBS + 40% Human Plasma EC50
[15] = strain 1b BB7, 5% FBS, no human plasma, read-out: 1b BB7 5% FBS EC50
[16] = strain 1b BB7, 5% FBS, read-out: 1b BB7 5% FBS EC50
[17] = 5% FBS, absence of human plasma, read-out: Stable Replicon 1a H77 5% FBS EC50
[18] = strain 1a H77, 5% FBS + 40% human plasma, read-out: 1a H77 5% FBS + 40% Human Plasma EC50
[19] = strain 1a H77, 5% FBS, no human plasma, read-out: 1a H77 5% FBS EC50
[20] = strain 1a H77, 5% FBS, read-out: 1a H77 5% FBS EC50

T1 sequence (P26663 2420-2989): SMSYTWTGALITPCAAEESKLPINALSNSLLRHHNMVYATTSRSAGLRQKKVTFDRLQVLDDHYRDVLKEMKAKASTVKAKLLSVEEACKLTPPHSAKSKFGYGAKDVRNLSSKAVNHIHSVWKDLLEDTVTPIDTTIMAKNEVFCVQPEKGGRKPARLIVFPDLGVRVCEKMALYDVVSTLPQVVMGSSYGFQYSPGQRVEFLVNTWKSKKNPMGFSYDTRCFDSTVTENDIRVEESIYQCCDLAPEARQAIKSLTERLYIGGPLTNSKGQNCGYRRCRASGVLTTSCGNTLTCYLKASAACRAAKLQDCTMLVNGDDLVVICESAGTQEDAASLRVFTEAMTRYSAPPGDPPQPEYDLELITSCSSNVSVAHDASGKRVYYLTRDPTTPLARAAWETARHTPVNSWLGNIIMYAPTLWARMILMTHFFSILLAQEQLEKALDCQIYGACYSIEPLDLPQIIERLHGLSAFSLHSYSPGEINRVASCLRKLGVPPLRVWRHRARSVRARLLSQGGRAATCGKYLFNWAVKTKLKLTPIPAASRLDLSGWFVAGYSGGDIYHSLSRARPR
T3 sequence (P27958 2421-2990): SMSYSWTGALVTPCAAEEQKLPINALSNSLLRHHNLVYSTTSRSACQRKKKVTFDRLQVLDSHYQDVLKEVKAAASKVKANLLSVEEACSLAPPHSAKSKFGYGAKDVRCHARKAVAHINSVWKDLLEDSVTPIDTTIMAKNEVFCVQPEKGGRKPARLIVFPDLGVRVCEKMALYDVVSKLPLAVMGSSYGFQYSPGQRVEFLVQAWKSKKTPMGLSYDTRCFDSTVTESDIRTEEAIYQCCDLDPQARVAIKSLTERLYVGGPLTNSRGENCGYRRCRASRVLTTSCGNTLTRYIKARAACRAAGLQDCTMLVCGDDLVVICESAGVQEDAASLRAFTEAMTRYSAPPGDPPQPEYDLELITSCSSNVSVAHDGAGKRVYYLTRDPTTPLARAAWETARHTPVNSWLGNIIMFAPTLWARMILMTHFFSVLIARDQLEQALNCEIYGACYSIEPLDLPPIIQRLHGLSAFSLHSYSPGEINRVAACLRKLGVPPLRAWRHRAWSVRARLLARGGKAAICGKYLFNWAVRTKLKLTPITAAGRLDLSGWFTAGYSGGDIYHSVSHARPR
T2 sequence (P27958 2421-2990 C2736Y): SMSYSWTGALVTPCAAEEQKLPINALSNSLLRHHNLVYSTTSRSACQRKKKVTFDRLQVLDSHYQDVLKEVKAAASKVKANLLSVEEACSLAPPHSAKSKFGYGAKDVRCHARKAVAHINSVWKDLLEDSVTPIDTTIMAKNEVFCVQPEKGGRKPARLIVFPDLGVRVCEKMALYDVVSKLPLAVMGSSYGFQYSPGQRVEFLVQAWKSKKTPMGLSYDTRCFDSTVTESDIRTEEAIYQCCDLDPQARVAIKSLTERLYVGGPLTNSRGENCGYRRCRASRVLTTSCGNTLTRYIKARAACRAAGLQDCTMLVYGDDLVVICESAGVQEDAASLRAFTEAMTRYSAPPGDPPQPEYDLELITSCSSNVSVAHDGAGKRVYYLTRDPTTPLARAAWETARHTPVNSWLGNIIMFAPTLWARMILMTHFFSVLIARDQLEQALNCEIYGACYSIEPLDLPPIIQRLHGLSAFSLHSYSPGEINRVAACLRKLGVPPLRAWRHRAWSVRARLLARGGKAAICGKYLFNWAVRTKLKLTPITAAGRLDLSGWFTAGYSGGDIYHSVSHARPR

With CS(=O)(=O)N(CCc1csc(N)n1)c1cc2oc(-c3ccc(F)cc3)c(-c3ncc[nH]3)c2cc1C1CC1 [Example 97, N-[2-(2-amino-1,3-thiazol-4-yl)ethyl]-N-[5-cyclopropyl-2-(4-fluorophenyl)-3-(1H-imidazol-2-yl)-1-benzofuran-6-yl]methanesulfonamide] the EC50 [1] was 3770 nM, the “Stable Replicon Fold Resistance C316Y/1a” value [1] was 34.9 fold and the EC50 [2, 14] was 644 nM. The EC50 [2, 15] was 62 nM, the EC50 [2, 16] was 62 nM and the IC50 [3] was 39 nM. For the same compound, the IC50 [4] was 549 nM, the IC50 [5] was 6 nM and the “C316Y/1a Fold Resistance” value [6] was 92 fold. It also gave an EC50 [7] of 36 nM, an EC50 [8] of 895 nM and an EC50 [9] of 595 nM. The EC50 [10] was 528 nM, the EC50 [11, 17] was 108 nM and the EC50 [11, 18] was 721 nM. The EC50 [11, 19] was 108 nM and the EC50 [11, 20] was 108 nM.

With CC1NC(c2c(-c3ccc(F)cc3)oc3cc(N(CCO)S(C)(=O)=O)c(C4CC4)cc23)=NO1 (stereo not shown) [Example 158, N-[5-cyclopropyl-2-(4-fluorophenyl)-3-(5-methyl-4,5-dihydro-1,2,4-oxadiazol-3-yl)-1-benzofuran-6-yl]-N-(2-hydroxyethyl)methanesulfonamide] the EC50 [1] was 1150 nM, the “Stable Replicon Fold Resistance C316Y/1a” value [1] was 49.4 fold and the EC50 [2, 14] was 335 nM. It also gave an EC50 [2, 15] of 23.5 nM, an EC50 [2, 16] of 23.5 nM and an IC50 [3] of 36.3 nM. The IC50 [4] was 160 nM, the IC50 [5] was 8.3 nM and the “C316Y/1a Fold Resistance” value [6] was 19 fold. The EC50 [7] was 43 nM, the EC50 [8] was 205 nM and the EC50 [12] was 19.5 nM. The EC50 [13] was 304 nM, the “Transient Replicon Fold Resistance C316Y/1a” value [13] was 16 fold and the EC50 [9] was 302 nM. It also gave an EC50 [10] of 176 nM, an EC50 [11, 17] of 23.3 nM and an EC50 [11, 18] of 260 nM. It also gave an EC50 [11, 19] of 23.3 nM and an EC50 [11, 20] of 23.3 nM.

In the case of CS(=O)(=O)N(CCCc1nsc(=O)[nH]1)c1cc2oc(-c3ccc(F)cc3)c(-c3ncc[nH]3)c2cc1C1CC1 [Example 178, N-[5-cyclopropyl-2-(4-fluorophenyl)-3-(1H-imidazol-2-yl)-1-benzofuran-6-yl]-N-[3-(5-oxo-4,5-dihydro-1,2,4-thiadiazol-3-yl)propyl]methanesulfonamide], the EC50 [1] is reported as 544 nM, the “Stable Replicon Fold Resistance C316Y/1a” value [1] is reported as 10.0 fold and the EC50 [2, 14] is reported as 274 nM. The EC50 [2, 15] was 18 nM, the EC50 [2, 16] was 18 nM and the IC50 [3] was 65 nM. The IC50 [4] was 828 nM, the IC50 [5] was 13 nM and the “C316Y/1a Fold Resistance” value [6] was 64 fold. It also gave an EC50 [7] of 24.4 nM, an EC50 [8] of 91.3 nM and an EC50 [9] of 116 nM. It also gave an EC50 [10] of 239 nM, an EC50 [11, 17] of 54.4 nM and an EC50 [11, 18] of 431 nM. For the same compound, the EC50 [11, 19] was 54.4 nM and the EC50 [11, 20] was 54.4 nM.

In the case of CS(=O)(=O)N(CCCc1n[nH]c(=O)o1)c1cc2oc(-c3ccc(F)cc3)c(-c3ncc[nH]3)c2cc1C1CC1 [Example 179, N-[5-cyclopropyl-2-(4-fluorophenyl)-3-(1H-imidazol-2-yl)-1-benzofuran-6-yl]-N-[3-(5-oxo-4,5-dihydro-1,3,4-oxadiazol-2-yl)propyl]methanesulfonamide], the EC50 [1] is reported as 686 nM, the “Stable Replicon Fold Resistance C316Y/1a” value [1] is reported as 70.0 fold and the EC50 [2, 14] is reported as 78 nM. The EC50 [2, 15] was 9 nM, the EC50 [2, 16] was 9 nM and the IC50 [3] was 25 nM. For the same compound, the IC50 [4] was 45 nM, the IC50 [5] was 4 nM and the “C316Y/1a Fold Resistance” value [6] was 11 fold. For the same compound, the EC50 [7] was 10.5 nM, the EC50 [8] was 84.9 nM and the EC50 [9] was 66 nM. For the same compound, the EC50 [10] was 77.8 nM, the EC50 [11, 17] was 9.8 nM and the EC50 [11, 18] was 52 nM. For the same compound, the EC50 [11, 19] was 9.8 nM and the EC50 [11, 20] was 9.8 nM.

With CS(=O)(=O)N(CCCCO)c1cc2oc(-c3ccc(F)cc3)c(-c3noc(=O)[nH]3)c2cc1C1CC1 [Example 185, N-[5-cyclopropyl-2-(4-fluorophenyl)-3-(5-oxo-4,5-dihydro-1,2,4-oxadiazol-3-yl)-1-benzofuran-6-yl]-N-(4-hydroxybutyl)methanesulfonamide] the EC50 [1] was 10000 nM, the “Stable Replicon Fold Resistance C316Y/1a” value [1] was 10.0 fold and the EC50 [2, 14] was 10000 nM. For the same compound, the EC50 [2, 15] was 1000 nM, the EC50 [2, 16] was 1000 nM and the IC50 [3] was 9000 nM. The IC50 [4] was 20000 nM, the IC50 [5] was 2300 nM and the “C316Y/1a Fold Resistance” value [6] was 9 fold. The EC50 [7] was 770 nM, the EC50 [8] was 1000 nM and the EC50 [9] was 1000 nM. For the same compound, the EC50 [10] was over 1000 nM, the EC50 [11, 17] was 1000 nM and the EC50 [11, 18] was 10000 nM. For the same compound, the EC50 [11, 19] was 1000 nM and the EC50 [11, 20] was 1000 nM.

In the case of Cc1c[nH]c(-c2c(-c3ccc(F)cc3)oc3cc(N(CCCCO)S(C)(=O)=O)c(C4CC4)cc23)n1 [Example 187, N-[5-cyclopropyl-2-(4-fluorophenyl)-3-(4-methyl-1H-imidazol-2-yl)-1-benzofuran-6-yl]-N-(4-hydroxybutyl)methanesulfonamide], the EC50 [2, 14] is reported as 244 nM, the EC50 [2, 15] is reported as 63.2 nM and the EC50 [2, 16] is reported as 63.2 nM. The IC50 [3] was 168 nM, the IC50 [4] was 159 nM and the IC50 [5] was 25.8 nM. The “C316Y/1a Fold Resistance” value [6] was 6 fold, the EC50 [7] was 91.7 nM and the EC50 [8] was 1000 nM. The EC50 [12] was 28.9 nM, the EC50 [13] was 128 nM and the “Transient Replicon Fold Resistance C316Y/1a” value [13] was 4 fold. For the same compound, the EC50 [9] was 703 nM, the EC50 [10] was over 1000 nM and the EC50 [11, 17] was 41.9 nM. For the same compound, the EC50 [11, 18] was 409 nM, the EC50 [11, 19] was 41.9 nM and the EC50 [11, 20] was 41.9 nM.

Compound Cc1c[nH]c(-c2c(-c3ccc(F)cc3)oc3cc(N(CCO)S(C)(=O)=O)c(C4CC4)cc23)n1 [Example 189, N-[5-cyclopropyl-2-(4-fluorophenyl)-3-(4-methyl-1H-imidazol-2-yl)-1-benzofuran-6-yl]-N-(2-hydroxyethyl)methanesulfonamide] has an EC50 [2, 14] of 445 nM, an EC50 [2, 15] of 114 nM and an EC50 [2, 16] of 114 nM. It also gave an IC50 [3] of 470 nM, an IC50 [4] of 461 nM and an IC50 [5] of 25.5 nM. For the same compound, the “C316Y/1a Fold Resistance” value [6] was 18 fold, the EC50 [7] was 231 nM and the EC50 [8] was 1860 nM. For the same compound, the EC50 [12] was 139 nM, the EC50 [13] was 326 nM and the “Transient Replicon Fold Resistance C316Y/1a” value [13] was 2 fold. The EC50 [9] was 1050 nM, the EC50 [10] was 2940 nM and the EC50 [11, 17] was 163 nM. The EC50 [11, 18] was 774 nM, the EC50 [11, 19] was 163 nM and the EC50 [11, 20] was 163 nM.
